The record followed here is patent publication US20090118330A1, “Diurea derivatives” (priority 2004, published 2009).

What all share (assay type): cell-based
The test system of experiment [1] is IL-2 production in human T-cells (CD4+). Nature of the experiment: Inhibition of PMA/Ionomycin stimulated IL-2 production in human T-cells. Conditions: T-cell. The method, then:
The compounds to be evaluated were dissolved in DMSO and the dilution series of the compounds were prepared in DMSO. The series were further diluted in cell culture medium (RPMI 1640 with ultraglutamine, 10% foetal calf serum (FCS)) to obtain a final assay concentration of DMSO of 0.1% in 200 μl total volume. The compounds were plated (2 μl/well) on opaque white assay plates together with controls.
Peripheral blood mononuclear cells (PBMC) were isolated from human blood drawn from healthy volunteers, by density gradient separation over Ficoll-Paque. T-cells (CD4+) were obtained with positive selection using magnetic cell sorting (MACS). The cells were resuspended at 1×10^6 cells/ml in cell culture medium (RPMI 1640 with ultraglutamine, 10% FCS, 10 mM hepes, 1 mM sodium pyruvate and 0.1 mg/ml gentamicin).
The cells (1×10^5/well) were added to the assay plates containing the diluted compounds and pre-incubated for 30 min at 37° C. in a humidified atmosphere of 5% carbon dioxide. The cells were stimulated with 10 ng/ml phorbol myristate acetate (PMA) and 250 ng/ml ionomycin and the plates were incubated for 4 hours at 37° C. in a humidified atmosphere of 5% carbon dioxide. Approximately 100 μl of the supernatants were removed and transferred to a separate microtiter plate and the remaining cells were lysed (Nucleotide Releasing Reagent, ViaLight™, Cambrex). All the plates were kept at −20° C. pending analysis. Human interleukin-2 (IL-2) was analysed with a standard ELISA kit (OptEIA™, Pharmingen) according to the manufacturer's instructions. Viability was assessed by measuring adenosine triphosphate (ATP) content by adding luciferase (ATP monitoring reagent, ViaLight™, Cambrex) to the lysed cells and measuring luminescence, all according to the manufacturer's specifications.
The % effect of each concentration of compound was calculated compared to non-treated stimulated cells. Non-linear regression, a modified Hill-plot (y=(a−d)/(1+(x/c)b)+d) was used to calculate the concentration for y=50% (IC50).

Experiment [2] relates to IL-6 production in human peripheral blood mononuclear cells. Kind of experiment: Inhibition of PMA/Ionomycin stimulated IL-6 production in human PBMC. To be noted: mean±S.D., n=3.
In experiment [3] the test system is TNF-α production in human peripheral blood mononuclear cells. Kind of experiment: Inhibition of PMA/Ionomycin stimulated TNF-α production in human PBMC. Conditions: mean±S.D., n=3.
For experiment [4], the system named is IFN-γ production in human peripheral blood mononuclear cells. Kind of experiment: Inhibition of PMA/Ionomycin stimulated IFN-γ production in human PBMC. To be noted: mean±S.D., n=3.
The test system of another experiment is human T-cells. Kind of experiment: Induction of apoptosis in human T-cells. To be noted: Annexin V, PARP cleavage, DNA fragmentation methods. The method, then: The induction of apoptosis can be observed by measuring Annexin V-binding to cells (Van Engeland et al. 1998). Primary human CD4^+ T cells were isolated from peripheral blood from healthy volunteers as described above. Cells were cultured immediately after purification at a density of 2×10^6 cells/ml in RPMI 1640 medium supplemented with 10% FCS, Gentamycin (100 μg/ml), Hepes (10 mM) and Sodium Pyruvate (1 mM). Cells were stained with annexin V-FITC and propidium iodide by using the ApoAlert Annexin V-FITC Apoptosis Kit (Clontech) according to manufacturer's instructions. Flow cytometry analysis was performed using a FACScan (Becton Dickinson). […] Cell lysates were prepared by lysing 2×10^6 PBS-washed cells in 50 μl buffer containing 20 mM Tris-HCl, pH 7.7, 250 mM NaCl, 3 mM EDTA, 3 mM EGTA 0.5% NP-40 supplemented with 1 mM p-nitrophenyl phosphate (PNPP), 10 mM β-glycerophosphate, 100 μM Na-vanadate and 1 mM phenylmethansulfonyl fluoride (PMSF). The protein concentrations were determined by using Bio-Rads protein assay and thereafter equal amounts of protein was loaded onto precasted NuPAGE™ Tris-Bis gels (Novex). After electrophoresis, the proteins were transferred to nitrocellulose membrane and probed with a polyclonal rabbit antibody directed against PARP (Roche). […]

Where [5] appears, read: mean, n = 2, read-out: IC50 IL-2.

Counter-ions that a name gives are not always drawn. Like-named read-outs stand apart in the source and are kept apart here.

One may read the IC50 as the midpoint of a concentration-inhibition curve. Consider `CCN(CC)CCN(CCNC(=O)Nc1cccc(C(F)(F)F)c1)C(=O)Nc1cccc(C(F)(F)F)c1.Cl` [Compound A, 1-(2-Diethylamino-ethyl)-3-(3-trifluoromethyl-phenyl)-1-{2-[3-(3-trifluoromethyl-phenyl)-ureido]-ethyl}-urea, hydrochloride], for which the IC50 turned out to be 2 µM in experiment [1] (setting [5]); 2 ± 1 µM in experiment [1] (mean±S.D., n=30, read-out: IC50 of IL-2 production); 3 ± 1 µM in experiment [2]; 3 ± 1 µM in experiment [3]; 4 ± 1 µM in experiment [4]. Further, the “concentration at which significant apoptosis induction was observed” value in the experiment on human T-cells is above 4 µM.

For the molecule `CCN(CC)CCN(CCNC(=O)Nc1cccc(C(F)(F)F)c1)C(=O)Nc1ccc(C(F)(F)F)cc1` [Compound B, 1-(2-Diethylamino-ethyl)-3-(4-trifluoromethyl-phenyl)-1-{2-[3-(3-trifluoromethyl-phenyl)-ureido]-ethyl}-urea], the IC50 in experiment [1] (setting [5]) was found to be 2 µM.

On to `O=C(NCCN(CCN1CCCC1)C(=O)Nc1ccc(Cl)cc1)Nc1ccc(Cl)cc1` [Compound C, 3-(4-Chloro-phenyl)-1-{2-[3-(4-chloro-phenyl)-ureido]-ethyl}-1-(2-pyrrolidin-1-yl-ethyl)-urea], for which the IC50 in experiment [1] (setting [5]) turned out to be 2 µM.

On to `O=C(NCCN(CCN1CCCCC1)C(=O)Nc1cccc(Cl)c1)Nc1cccc(C(F)(F)F)c1` [Compound D, 1-{2-[3-(3-Chloro-phenyl)-1-(2-piperidin-1-yl-ethyl)ureido]-ethyl}-3-(3-trifluoromethyl-phenyl)-urea], for which the IC50 in experiment [1] (setting [5]) is 2 µM.

For `O=C(NCCN(CCN1CCCC1)C(=O)Nc1ccc(C(F)(F)F)cc1)Nc1ccc2ncccc2c1` [Compound I, 1-{2-[1-(2-Pyrrolidin-1-yl-ethyl)-3-(4-trifluoromethylphenyl)-ureido]-ethyl}-3-quinolin-6-yl-urea], the IC50 in experiment [1] (setting [5]) turned out to be 5 µM.

On to `CCN(CC)CCN(CCNC(=O)Nc1cc(Cl)nc(Cl)c1)C(=O)Nc1ccc(Br)cc1` [Compound M, 1-{2-[3-(4-Bromo-phenyl)-1-(2-diethylamino-ethyl)ureido]-ethyl}-3-(2,6-dichloro-pyridin-4-yl)-urea], for which, in experiment [1] (setting [5]), the IC50 was 2 µM.

As for `CN(C)CCN(CCNC(=O)Nc1ccc(Br)cc1)C(=O)Nc1ccc(Br)cc1` [Compound E, 3-(4-Bromo-phenyl)-1-{2-[3-(4-bromo-phenyl)-ureido]-ethyl}-1-(2-dimethylamino-ethyl)-urea], the IC50 in experiment [1] (setting [5]) was 1 µM.

With `CCN(CC)CCN(CCNC(=O)Nc1ccccc1)C(=O)Nc1ccc(C(F)(F)F)cc1` [Compound F, 1-(2-Diethylamino-ethyl)-1-[2-(3-phenyl-ureido)-ethyl]-3-(4-trifluoromethyl-phenyl)-urea], the IC50 in experiment [1] (setting [5]) amounted to 3 µM.

`O=C(NCCN(CCN1CCCCC1)C(=O)Nc1cccc(C(F)(F)F)c1)Nc1cccc(C(F)(F)F)c1` [Compound K, 1-(2-Piperidin-1-yl-ethyl)-3-(3-trifluoromethyl-phenyl)-1-{2-[3-(3-trifluoromethyl-phenyl)-ureido]-ethyl}-urea]: the IC50 in experiment [1] (setting [5]) worked out at 2 µM.

Take `O=C(NCCN(CCN1CCCC1)C(=O)Nc1ccc(C(F)(F)F)cc1)Nc1cccc(C(F)(F)F)c1` [Compound H, 1-{2-[1-(2-Pyrrolidin-1-yl-ethyl)-3-(4-trifluoromethylphenyl)-ureido]-ethyl}-3-(3-trifluoromethyl-phenyl)-urea]: the IC50 in experiment [1] (setting [5]) stood at 1 µM.

As for `O=C(NCCN(CCN1CCCC1)C(=O)Nc1ccc(C(F)(F)F)cc1)Nc1ccc(C(F)(F)F)cc1` [Compound J, 1-(2-Pyrrolidin-1-yl-ethyl)-3-(4-trifluoromethyl-phenyl)-1-{2-[3-(4-trifluoromethyl-phenyl)-ureido]-ethyl}-urea], the IC50 in experiment [1] (setting [5]) amounted to 3 µM.

As to `O=C(NCCN(CCN1CCCCC1)C(=O)Nc1ccc(C(F)(F)F)cc1)Nc1cccc(C(F)(F)F)c1` [Compound G, 1-(2-Piperidin-1-yl-ethyl)-3-(4-trifluoromethyl-phenyl)-1-{2-[3-(3-trifluoromethyl-phenyl)-ureido]-ethyl}-urea], the IC50 in experiment [1] (setting [5]) was found to be 1 µM.

On to `CN(C)CCN(CCNC(=O)Nc1ccc(Cl)cc1)C(=O)Nc1ccc(C(F)(F)F)cc1` [Compound L, 1-{2-[3-(4-Chloro-phenyl)-ureido]-ethyl}-1-(2-dimethylamino-ethyl)-3-(4-trifluoromethyl-phenyl)-urea, hydrochloride], for which, in experiment [1] (setting [5]), the IC50 was determined as 2 µM.
